The values that follow come from paper PMC12320299 (Chemical Science, 2025).

The structures appear in SMILES notation.

Assay [1] deals with SW480 colon carcinoma cell line. Description: MTT viability assay, SW480, 24 h. The assay is classed as cell-based, human. The conditions noted are these: for IC50: 24 h incubation; for potency compared to morpholine-analogues 1b and 2b: SW480, 24 h. As to the method: cultured in adherent T75 flasks (Sarstedt) in a humidified incubator at 37 °C and 5% CO2 (HeraCell150i, Thermo Fisher Scientific) and subcultured three times a week as the cells reached 75–80% growth area occupied. […]
Trypsin/EDTA solution (0.25%, Sigma-Aldrich) was used for detachment of all […]
SW480 human colon carcinoma cells (4.000 cells/well for the ethyl complexes; 4.000 and 10.000 cells/well for the morpholino complexes) were seeded in flat-bottom 96-well plates (Corning) and incubated at 37 °C for 24 h in a humidified incubator at 5% CO2 (HeraCell150i, Thermo Fisher Scientific). Stock solutions of the compounds were freshly prepared in DMSO […]
10 µM in complete cell culture medium for the ethyl compounds and 5, 10, 20, 40, 60, 80, 120, 160 µM for the morpholino compounds (final concentration of DMSO ≤0.4% v/v). The cells were incubated with the compounds for 24 h and 72 h. Then, the cell metabolism was colorimetrically determined using 3-(4,5-dimethylthiazol-2-yl)-2,5-diphenyl tetrazolium bromide (MTT). For this purpose, MTT reagent (20 µL, 5 mg mL-1 in phosphate-buffered saline, PBS) was added to each well and further incubated for 4 h. The medium was gently […]
removed and 100 µL DMSO was added to dissolve the formazan crystals. Photometric quantification was performed at 570 nm with a Multiskan Go 1510 photometer (Thermo Fisher […]
The absorbances were blank corrected and converted to relative proliferation. The IC50 values (concentration of 50% growth inhibition) were obtained using a sigmoidal fit of the experimental data and calculated as the mean ± standard deviation of at least three independent experiments, each in at least triplicates. […]
(each 3.000 cells/well) were seeded in 100 µL/well into flat-bottom 96-well plates (Starlab) and incubated at 37 °C for 24 h in a humidified incubator (Binder CB210) at 5% CO2. Complex 1a, bafilomycin or bortezomib were dissolved in DMSO and diluted in appropriate cell culture medium to respective concentrations. After 24 h of treatment, plates were measured by MTT assay as described above.
Colon carcinoma cells (SW480) were seeded into 12-well plates (CytoOne, Starlab) in densities of 1×10^5 cells per well (in 1 mL complete medium). After 24 h, cells were treated with […]

Another assay relates to CT26 colon carcinoma. Kind of assay: Anti-tumour activity in subcutaneous CT26 allografts. The assay is classed as in vivo, BALB/c mice. As to conditions: for tumour growth compared to vehicle-treated controls: i.p. over two weeks, 10 mg kg^−1 (1a, 2a), 30 mg kg^−1 (1b, 2b). As to the method: Tumour inhibition of the four compounds was evaluated in subcutaneous CT26 allografts using BALB/c mice, since it represents an appropriate immune competent mouse model to study colon carcinoma. The compounds were administered intraperitoneally (i.p.) over two weeks at doses of 10 mg kg^−1 for the 3-Et-NQ complexes and 30 mg kg^−1 for the 3-Morph-NQ complexes. The different dosages were selected as maximal tolerable doses (MTDs) after an initial toxicity screen (data not shown).
Animals. All experiments were carried out with male Balb/c mice according to the regulation of the Ethics Committee for the Care and Use of Laboratory Animals at the Medical University Vienna (BMWF-2022-0.770.291), the guidelines from the Austrian Animal Science Association and the Federation of European Laboratory Animal Science Associations (FELASA). The animals were kept in a pathogen-free conditions, controlled environment with 12 h light–dark cycle with ad libitum access to food and water. Every procedure was done in a laminar airflow […]
Treatment. CT-26 cells ([…] in 50 μL serum-free medium) were injected subcutaneously (s.c.) into the right flank of ten– to eleven-week-old male Balb/c mice. Three days after cell injection, all compounds (dissolved in 10% DMSO in water) were administered […]
1b/2b. Regarding anticancer activity experiments, mice were treated on 5 consecutive days […]
over 2 weeks. […]

As to `CCC1=C2[O][Ru][O]C2(n2cccn2)c2ccccc2C1=O.Cc1ccc(C(C)C)cc1` (stereo not shown) [Compound 1a, [(3-ethyl-4-oxo-(pyrazolyl)-dihydronaphthalene)(cymene)ruthenium(II)]], in assay [1], the IC50 worked out at 620 ± 40 nM; the “potency compared to morpholine-analogues 1b and 2b” value is reported as over 30 times. Also, in the assay with CT26 colon carcinoma (10 mg kg^−1 i.p. over two weeks, vs vehicle), the “reduction in tumour volume on day 13” value is given as 44%. In the assay on CT26 colon carcinoma (10 mg kg^−1 i.p., five consecutive days), the “tumour inhibition, 1-week experiment” value is “statistically significant tumour inhibition”. For the same molecule, the “tumour growth compared to vehicle-treated controls” value in the assay with CT26 colon carcinoma is “significantly inhibit tumour growth”.

Regarding `Cc1ccc(C(C)C)cc1.O=C1C(CN2CCOCC2)=C2[O][Ru][O]C2(n2cccn2)c2ccccc21` (stereo not shown) [Compound 1b], half-maximal inhibition in assay [1] (IC50) was put at 38000 ± 5000 nM. Besides, the “tumour growth compared to vehicle-treated controls” value with CT26 colon carcinoma is “inactive”.

`CCC1=C2[O][Os][O]C2(n2cccn2)c2ccccc2C1=O.Cc1ccc(C(C)C)cc1` (stereo not shown) [Compound 2a]: in assay [1], 1200 ± 100 nM corresponded to half-maximal inhibition (IC50); the “potency compared to morpholine-analogues 1b and 2b” value is recorded as over 30 times. In addition, the “tumour growth compared to vehicle-treated controls” value with CT26 colon carcinoma is on record as “significantly inhibit tumour growth”.
